Test [1] in a line: Sensorial tests of the taste of the compounds (own investigations). It counts as in vivo. As to conditions: for cooling effect / salt-intensifying effect: sensorial tests; for intrinsic umami taste: sensorial tests of the compound. An excerpt:
From the taste aspect the use according to the invention of a compound of the Formula (I) which is one of the two enantiomeric compounds of the Formula (IVa),
In this connection the relative configuration of the stereogenic centers is of great importance.

Another test deals with trained panel. As to the kind of experiment: Sensorial tests in American beef bouillon / meat broth by trained panel (mouthfeel, comparison with MSG). It counts as in vivo. Particulars: for umami taste compared to other compounds having an umami taste / MSG: American beef bouillon base, 5 ppm (IVc), 2 ppm (B1)+(B2), 0.5 ppm (P1)+(P2) vs 0.05 wt. % MSG (FIG. 1-3). An excerpt:
This is also illustrated in the accompanying spider diagrams, in which an American beef bouillon as base is compared firstly to such a base containing an addition of 5 ppm of (1R,2S,5R,6S,7R)-2-isopropyl-5-methyl-bicyclo[4.1.0]heptane-7-carboxylic acid ethylamide (IVc) (FIG. 1) or 2 ppm of a mixture of (1S,2S,5R,6R,7S)-2-isopropyl-5-methyl-bicyclo[4.1.0]heptane-7-carboxylic acid cyclobutylamide (B1) and (1R,2S,5R,6S,7R)-2-isopropyl-5-methyl-bicyclo[4.1.0]heptane-7-carboxylic acid cyclobutylamide (B2) (FIG. 2) or 0.5 ppm of a mixture of (1S,2S,5R,6R,7S)-2-isopropyl-5-methyl-bicyclo[4.1.0]heptane-7-carboxylic acid cyclopentylamide (P1) and (1R,2S,5R,6S,7R)-2-isopropyl-5-methyl-bicyclo[4.1.0]heptane-7-carboxylic acid-cyclopentylamide (P2) (FIG. 3) respectively, and secondly with such a base containing an addition of 0.05 wt. % of MSG.
The mean values of the respective scores are shown.
The taste of a 0.5% American beef extract as base (continuous, pale line) was compared on the basis of an evaluation by a panel of trained testers with the taste firstly of such a base to which 5 ppm of (1R,2S,5R,6S,7R)-2-isopropyl-5-methyl-bicyclo[4.1.0]heptane-7-carboxylic acid ethylamide had been added (continuous, dark line), and secondly of such a base to which 0.05 wt. % of MSG had been added (dotted line).
The taste of a 0.5% American beef extract as base (continuous, pale line) was compared on the basis of an evaluation by a panel of trained testers to the taste firstly of such a base to which 2 ppm of a mixture of 1S,2S,5R,6R,7S)-2-isopropyl-5-methyl-bicyclo[4.1.0]heptane-7-carboxylic acid cyclobutylamide (B1) and (1R,2S,5R,6S,7R)-2-isopropyl-5-methyl-bicyclo[4.1.0]heptane-7-carboxylic acid cyclobutylamide (B2) had been added (continuous, dark line), and secondly of such a base to which 0.05 wt. % of MSG had been added (dotted line).
The taste of a 0.5 wt. % American beef extract as base (continuous, pale line) was compared on the basis of an evaluation by a panel of trained testers with the taste firstly of such a base to which 0.5 ppm of a mixture of (1S,2S,5R,6R,7S)-2-Isopropyl-5-methyl-bicyclo[4.1.0]heptane-7-carboxylic acid cyclopentylamide (P1) and (1R,2S,5R,6S,7R)-2-isopropyl-5-methyl-bicyclo[4.1.0]heptane-7-carboxylic acid cyclopentylamide (P2) had been added (continuous, dark line), and secondly of such a base to which 0.05 wt. % of MSG had been added (dotted line).

With `CCNC(=O)[C@@H]1[C@@H]2[C@H]1[C@H](C(C)C)CC[C@H]2C` (single isomer, unassigned) [Formula (IVc)], in test [1] (in vivo), the “intensification of saltiness, sweetness and umami taste of aroma compositions” value is “intensifies the saltiness, the sweetness and the umami taste”. Besides, in test [1], the cooling effect result was “no cooling effect” and the intrinsic umami taste entry is listed as “very strongly pronounced”. The mouthfeel entry with trained panel (5 ppm added to 0.5 wt. % American beef bouillon, compared with 0.05 wt. % MSG) is given as “increased by roughly the same extent as is normally achieved only by the addition of 0.05 wt. % of MSG”. Also, the “umami taste compared to other compounds having an umami taste / MSG” value with trained panel was “clear umami taste very similar to sodium glutamate (MSG)”.

As for `CCNC(=O)C1C2C1[C@H](C)CC[C@H]2C(C)C` (single isomer, unassigned) [mixture of both diastereomers], in test [1], the cooling effect result is on record as “can no longer be detected” and the intrinsic umami taste entry was “completely dominated by the umami impression of the (1R,2S,5R,6S,7R) isomer”.

Turning to `CCNC(=O)C1C2CC(C)CC(C)C21` (stereo not drawn) [2,4-dimethyl-bicyclo[4.1.0]heptane-7-carboxylic acid ethylamide], in test [1], the salt-intensifying effect result is given as “slight” and the intrinsic umami taste result is recorded as “stronger, umami-like”.

As for `CCNC(=O)C1C2C(C)CCC(C(C)C)C12` (stereo not drawn) [2-Isopropyl-5-methyl-2-ispropyl-bicyclo[4.1.0]heptane-7-carboxylic acid ethylamide], the sensorial properties entry in test [1] (in vivo) is on record as “particularly strong”.

For `CCNC(=O)C1C2CCCC(C(C)C)C21` (stereo not drawn) [2-isopropyl-bicyclo[4.1.0]heptane-7-carboxylic acid ethylamide, reference compound], in test [1], the salt-intensifying effect entry was “slight” and the intrinsic umami taste result is on record as “very slight, umami-like”.

Regarding `CCNC(=O)[C@@H]1[C@@H]2[C@H]1[C@H](C)CC[C@H]2C(C)C` [(1S,2S,5R,6R,7S)-2-isopropyl-5-methyl-bicyclo[4.1.0]heptane-7-carboxylic acid ethylamide], in test [1], the cooling effect entry is listed as “slight” and the intrinsic umami taste entry is given as “only moderately”.

With `CCNC(=O)C1C2CCCCC21` (stereo not drawn) [Bicyclo[4.1.0]heptane-7-carboxylic acid N-ethylamide, reference compound], the taste result in test [1] (in vivo) was “no detectable taste”.

In the case of `CC(C)[C@@H]1CC[C@@H](C)[C@H]2[C@H](C(=O)NC3CCC3)[C@H]21` [Formula (B1), (1S,2S,5R,6R,7S)-2-isopropyl-5-methyl-bicyclo[4.1.0]heptane-7-carboxylic acid cyclobutylamide], the intrinsic umami taste entry in test [1] is “very strongly pronounced”.

Take `CC(C)[C@@H]1CC[C@@H](C)[C@@H]2[C@@H](C(=O)NC3CCC3)[C@@H]21` [Formula (B2), (1R,2S,5R,6S,7R)-2-isopropyl-5-methyl-bicyclo[4.1.0]heptane-7-carboxylic acid-cyclobutylamide]: the intrinsic umami taste result in test [1] is “very strongly pronounced”.

Take `CC(C)[C@@H]1CC[C@@H](C)[C@H]2[C@H](C(=O)NC3CCCCC3)[C@H]21` [Formula (H1), (1S,2S,5R,6R,7S)-2-isopropyl-5-methyl-bicyclo[4.1.0]heptane-7-carboxylic acid cyclohexylamide]: the intrinsic umami taste result in test [1] is “very strongly pronounced”.

On to `CC(C)[C@@H]1CC[C@@H](C)[C@@H]2[C@@H](C(=O)NC3CCCCC3)[C@@H]21` [Formula (H2), (1R,2S,5R,6S,7R)-2-isopropyl-5-methyl-bicyclo[4.1.0]heptane-7-carboxylic acid-cyclohexylamide], for which the intrinsic umami taste result in test [1] is on record as “very strongly pronounced”.

Take `CCNC(=O)C1C2C3CCC(C3)C12` (stereo not drawn) [Tricyclo[3.2.1.0^2,4]octane-3-carboxylic acid N-ethylamide]: in test [1], the salt-intensifying effect result is listed as “salt-intensifying effect” and the intrinsic umami taste result was “distinct umami taste”. In addition, in the test on trained panel (50 ppm in broths/consommés made from American beef extract), the mouthfeel entry was “statistically significant increase”.

For `CCNC(=O)C1CC1` [cyclopropanecarboxylic acid ethylamide, Cyclopropanecarboxylic acid N-ethylamide, reference compound], the umami taste result in test [1] (10 ppm in aqueous solutions) is on record as “very weak umami taste”. For the same compound, the “contribution to the mouthfeel” value with trained panel (meat broth/consommé compositions) is on record as “does not make any statistically significant contribution”.

On to “(1R,2S,5R,6S,7R)-2-isopropyl-5-methyl-bicyclo[4.1.0]heptane-7-carboxylic acid cyclobutylamide/(1S,2S,5R,6R,7S)-2-isopropyl-5-methyl-bicyclo[4.1.0]heptane-7-carboxylic acid cyclobutylamide [mixture of (B1) and (B2)]”, for which the sweetish impression result in test [1] (in vivo) was “slightly sweetish impression”. In addition, the intrinsic umami taste entry in test [1] was “very strong umami note”. The “umami taste compared to other compounds having an umami taste / MSG” value in the test with trained panel is recorded as “clear umami taste very similar to sodium glutamate (MSG)”.

On to “(1R,2S,5R,6S,7R)-2-isopropyl-5-methyl-bicyclo[4.1.0]heptane-7-carboxylic acid cyclohexylamide/(1S,2S,5R,6R,7S)-2-isopropyl-5-methyl-bicyclo[4.1.0]heptane-7-carboxylic acid cyclohexylamide [mixture of (H1) and (H2)]”, for which, in test [1], the intrinsic umami taste entry was “umami note was also detected, which however developed somewhat more slowly”.

For “(1R,2S,5R,6S,7R)-2-isopropyl-5-methyl-bicyclo[4.1.0]heptane-7-carboxylic acid cyclopentylamide/(1S,2S,5R,6R,7S)-2-isopropyl-5-methyl-bicyclo[4.1.0]heptane-7-carboxylic acid cyclopentylamide [mixture of (P1) and (P2)]”, the umami taste result in test [1] (at very low concentrations) was “very much more intensive and clear”. Also, in the test with trained panel, the “umami taste compared to other compounds having an umami taste / MSG” value is reported as “clear umami taste very similar to sodium glutamate (MSG)”.
